From paper PMC7000685, “Loss of GFAT-1 feedback regulation activates the hexosamine pathway that modulates protein homeostasis” (Nature Communications, 2020)

Assays:
human GFAT-1 [1] = target: T1, human GFAT-1 (Homo sapiens, UniProt Q06210); assay: X-ray crystal structure (co-crystallization); type: binding
T1 construct: gene GFPT1; full length isoform 2, internal His6-tag inserted between Gly299 and Asp300 (kept), initial Met removed, Sf21 baculovirus (MultiBac), Ni-NTA and SEC; phosphorylated S243 found; dimer in crystal

human GFAT-1 [2] = target: T1, human GFAT-1; assay: X-ray crystal structure (soaking); type: binding; conditions: 5 mM soak, 2 h; UDP-GlcNAc site of isomerase domain; inhibition curve in the GDH-coupled assay only in Figure 4g
human GFAT-1 [3] = target: T1, human GFAT-1; assay: X-ray crystal structure (crystallized with Frc6P); type: binding; conditions: isomerase site; linear Glc6P modelled, Frc6P not excluded at this resolution
human GFAT-1 [4] = target: T1, human GFAT-1; assay: GDH-coupled glutaminase (amidohydrolysis) assay, […] nm; type: biochemical; conditions: 10 mM L-Gln, 6 mM Frc6P, 1 mM APAD, 1 mM EDTA, 50 mM KCl, 100 mM potassium phosphate pH 7.5, 37 °C; feedback inhibitor bound at isomerase domain (allosteric)

T1 sequence (Q06210 2-681 isoform Q06210-2): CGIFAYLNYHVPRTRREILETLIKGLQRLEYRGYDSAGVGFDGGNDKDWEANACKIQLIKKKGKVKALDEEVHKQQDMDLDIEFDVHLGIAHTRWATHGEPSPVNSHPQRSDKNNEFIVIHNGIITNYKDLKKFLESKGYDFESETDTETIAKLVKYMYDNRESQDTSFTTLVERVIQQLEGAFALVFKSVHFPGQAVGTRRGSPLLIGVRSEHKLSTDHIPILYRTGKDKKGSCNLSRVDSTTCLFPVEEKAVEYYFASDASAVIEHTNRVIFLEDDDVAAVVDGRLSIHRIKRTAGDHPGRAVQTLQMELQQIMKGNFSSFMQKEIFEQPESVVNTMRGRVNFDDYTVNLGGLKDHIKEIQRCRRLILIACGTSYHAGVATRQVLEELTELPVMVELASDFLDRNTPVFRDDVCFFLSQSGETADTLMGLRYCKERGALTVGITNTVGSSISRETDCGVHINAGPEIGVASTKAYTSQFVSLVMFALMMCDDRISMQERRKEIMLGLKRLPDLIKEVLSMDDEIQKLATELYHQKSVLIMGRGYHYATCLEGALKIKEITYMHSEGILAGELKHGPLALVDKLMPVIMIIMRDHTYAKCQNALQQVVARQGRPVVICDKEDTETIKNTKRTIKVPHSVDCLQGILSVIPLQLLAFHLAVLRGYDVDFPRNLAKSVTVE

N[C@H]1C(O)O[C@H](COP(=O)(O)O)[C@@H](O)[C@@H]1O (stereo partly drawn) [D-GlcN6P]
X-ray crystal structure (co-crystallization) (human GFAT-1 [1]; 1 mM GlcN6P, with L-Glu, linear sugar in isomerase site): The GlcN6P-bound structure formed the same asymmetric dimer as the Glc6P-bound structure

N[C@@H](CCC(=O)O)C(=O)O [L-Glu]
X-ray crystal structure (co-crystallization) (human GFAT-1 [1]; 50 mM L-Glu, glutaminase site of monomer A only): The product L-Glu is bound to the glutaminase active site in one monomer (monomer A)

CC(=O)N[C@H]1[C@@H](OP(=O)(O)OP(=O)(O)OC[C@H]2O[C@@H](n3ccc(=O)[nH]c3=O)[C@H](O)[C@@H]2O)O[C@H](CO)[C@H](O)[C@@H]1O [UDP-GalNAc]
X-ray crystal structure (soaking) (human GFAT-1 [2]): UDP-GalNAc was detected in the UDP-GlcNAc binding site after crystal soaking

O=P(O)(O)OC[C@H]1OC(O)[C@H](O)[C@@H](O)[C@@H]1O (some centres unmarked) [Glc6P]
X-ray crystal structure (crystallized with Frc6P) (human GFAT-1 [3]): we decided to model the product Glc6P in our crystal structures

CC(=O)N[C@H]1[C@@H](OP(=O)(O)OP(=O)(O)OC[C@H]2O[C@@H](n3ccc(=O)[nH]c3=O)[C@H](O)[C@@H]2O)O[C@H](CO)[C@@H](O)[C@@H]1O [UDP-GlcNAc]
IC50 (human GFAT-1 [4]): 43.3 (−2.3/+2.5) µM
